Test results taken from patent publication US8642788B2, “Activators of executioner procaspases 3, 6 and 7” (The Regents of the University of California, priority 2008, dated 2014).

How the values were obtained:
Type in all cases: biochemical
procaspase-7 = biological target: T1, procaspase-7 (Homo sapiens, UniProt P55210); test: Executioner procaspase-7 activation assay (Ac-DEVD-AFC fluorogenic substrate); conditions: incubation with compound for 5 h at 37° C.; 100 nM procaspase
T1 construct: His6 (C); made in house; host or cells: E. coli BL21(DE3)RP, pET-21b
T1 sequence (P55210 1-303): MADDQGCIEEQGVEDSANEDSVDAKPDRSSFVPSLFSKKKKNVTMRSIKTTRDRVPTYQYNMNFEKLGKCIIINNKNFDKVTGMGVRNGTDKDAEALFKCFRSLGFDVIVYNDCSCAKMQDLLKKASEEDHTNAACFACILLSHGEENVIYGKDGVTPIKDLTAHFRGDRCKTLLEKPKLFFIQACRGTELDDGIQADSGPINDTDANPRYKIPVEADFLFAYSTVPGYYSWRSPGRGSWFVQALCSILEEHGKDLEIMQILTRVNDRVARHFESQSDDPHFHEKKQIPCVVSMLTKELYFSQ
Description: (§1) The executioner procaspase-3, -6 and -7 activation assay protocol involves incubating the target protein at the physiologically-relevant concentration of 100 nM with activating compounds (ranging from 100 nM to 100 uM) in a total volume of 50 μL consisting of a reaction buffer of 50 mM HEPES, pH 7.4, 50 mM KCl, 1 mM DTT and 0.01% Triton-X100 (to reduce false positive hits due to compound aggregation). The procaspase/small molecule incubations are then agitated at 37° C. and assayed at various time points by addition of the fluorogenic peptide substrate 7-Amino-4-trifluoromethylcoumarin-DEVD (Ac-DEVD-AFC) (procaspases-3, -7) or Ac-VEID-AFC (procaspase-6) to a final concentration of 25 μM and analyzed by a kinetic 30 minute assay (excitation 365 nm and emission 495 nm). The final concentration of DMSO in each well is 3% and has no effect on enzyme stability or activity. […] All components of the assay including protein, substrate and inhibitor are stored as frozen aliquots and thawed immediately prior to the assay.
(§2) Tables 1 and 2. Procaspase activation as a result of incubation with compound for 5 h at 37° C. (+++ EC50˜0.5-10 μM; ++ EC50˜10-50 μM; + EC50˜50-200 μM; -no activation observed; ND not determined).

procaspase-6 = biological target: T2, procaspase-6 (Homo sapiens, UniProt P55212); test: Executioner procaspase-6 activation assay (Ac-VEID-AFC fluorogenic substrate); conditions: incubation with compound for 5 h at 37° C.; 100 nM procaspase
T2 sequence (P55212 1-293): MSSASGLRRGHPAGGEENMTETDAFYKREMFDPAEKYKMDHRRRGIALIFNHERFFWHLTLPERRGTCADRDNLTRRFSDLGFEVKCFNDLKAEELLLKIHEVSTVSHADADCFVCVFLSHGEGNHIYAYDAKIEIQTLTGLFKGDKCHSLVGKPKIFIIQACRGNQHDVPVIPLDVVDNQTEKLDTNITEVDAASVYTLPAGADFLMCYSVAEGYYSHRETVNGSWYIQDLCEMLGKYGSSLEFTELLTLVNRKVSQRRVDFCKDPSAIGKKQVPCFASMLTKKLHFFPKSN
Description: as §1, §2

procaspase-3 = biological target: T3, procaspase-3 (Homo sapiens, UniProt P42574); test: Executioner procaspase-3 activation assay (Ac-DEVD-AFC fluorogenic substrate); conditions: incubation with compound for 5 h at 37° C.; 100 nM procaspase; read-out: Procaspase Activation 3
T3 construct: His6 (C); made in house; host or cells: E. coli BL21(DE3)RP, pET-23b
T3 sequence (P42574 1-277): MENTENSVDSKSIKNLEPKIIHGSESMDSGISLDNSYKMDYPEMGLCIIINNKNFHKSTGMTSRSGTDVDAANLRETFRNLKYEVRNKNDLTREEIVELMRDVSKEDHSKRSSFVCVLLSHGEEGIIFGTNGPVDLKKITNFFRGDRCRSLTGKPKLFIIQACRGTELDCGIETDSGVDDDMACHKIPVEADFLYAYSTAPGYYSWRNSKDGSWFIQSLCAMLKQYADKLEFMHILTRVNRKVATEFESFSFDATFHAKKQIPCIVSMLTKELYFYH
Description: The executioner procaspase-3, -6 and -7 activation assay protocol involves incubating the target protein at the physiologically-relevant concentration of 100 nM with activating compounds (ranging from 100 nM to 100 uM) in a total volume of 50 μL consisting of a reaction buffer of 50 mM HEPES, pH 7.4, 50 mM KCl, 1 mM DTT and 0.01% Triton-X100 (to reduce false positive hits due to compound aggregation). […] All components of the assay including protein, substrate and inhibitor are stored as frozen aliquots and thawed immediately prior to the assay.

EC50 (procaspase-7) [µM]	EC50 (procaspase-6) [µM]	EC50 (procaspase-3) [µM]	Structure (SMILES)
> 100	> 100	> 100	O=C(Nc1cccc(-c2nc3ccccc3[nH]2)c1)c1cc2cccc(O)c2oc1=O [compound 15, 8-Hydroxy-2-oxo-2H-chromene-3-carboxylic acid [3-(1H-benzoimidazol-2-yl)-phenyl]-amide]
> 100	> 100	> 100	O=C(Nc1cccc(N2CCOCC2)c1)c1cc2cccc(O)c2oc1=O [compound 16, 8-Hydroxy-2-oxo-2H-chromene-3-carboxylic acid (3-morpholin-4-yl-phenyl)-amide]
> 100	> 100	> 100	O=C(Nc1cccc(-c2cccnc2)c1)c1cc2cccc(O)c2oc1=O [compound 17, 8-Hydroxy-2-oxo-2H-chromene-3-carboxylic acid (3-pyridin-3-yl-phenyl)-amide]
> 100	> 100	> 100	COc1cccc2cc(C(=O)Nc3cccc(-c4cccnc4)c3)c(=O)oc12 [compound 18, 8-Methoxy-2-oxo-2H-chromene-3-carboxylic acid (3-pyridin-3-yl-phenyl)-amide]
50 to 200	0.5 to 10	0.5 to 10	O=C(Nc1cccc(-c2ccncc2)c1)c1cc2cccc(O)c2oc1=O [compound 19, 8-Hydroxy-2-oxo-2H-chromene-3-carboxylic acid (3-pyridin-4-yl-phenyl)-amide]
> 100	50 to 200	10 to 50	CCOc1ncccc1-c1cccc(NC(=O)c2cc3cccc(O)c3oc2=O)c1 [compound 41, 8-Hydroxy-2-oxo-2H-chromene-3-carboxylic acid [3-(2-ethoxy-pyridin-3-yl)-phenyl]-amide]
> 100	> 100	> 100	CCOc1ncccc1-c1cccc(NC(=O)c2cc3cccc(OC)c3oc2=O)c1 [compound 42, 8-Methoxy-2-oxo-2H-chromene-3-carboxylic acid [3-(2-ethoxy-pyridin-3-yl)-phenyl]-amide]
> 100	> 100	> 100	CCOc1ncccc1-c1cccc(NC(=O)c2cc3cccc(OC(F)(F)F)c3oc2=O)c1 [compound 43, 8-Trifluoromethoxy-2-oxo-2H-chromene-3-carboxylic acid [3-(2-ethoxy-pyridin-3-yl)-phenyl]-amide]
0.5 to 10	> 100	> 100	COc1ccc(-c2cccc(NC(=O)c3cc4cccc(O)c4oc3=O)c2)cc1 [compound 44, 8-Hydroxy-2-oxo-2H-chromene-3-carboxylic acid (4′-Methoxy-biphenyl-3-yl)-amide]
> 100	> 100	> 100	COc1ccc(-c2cccc(NC(=O)c3cc4cccc(OC(F)(F)F)c4oc3=O)c2)cc1 [compound 46, 8-Trifluoromethoxy-2-oxo-2H-chromene-3-carboxylic acid (4′-Methoxy-biphenyl-3-yl)-amide]
> 100	> 100	> 100	COc1ccc(-c2cccc(NC(=O)c3cc4cccc(O)c4oc3=O)c2)cc1C [compound 47, 8-Hydroxy-2-oxo-2H-chromene-3-carboxylic acid (4′-Methoxy-3′-methyl-biphenyl-3-yl)-amide]
> 100	> 100	> 100	COc1ccc(-c2cccc(NC(=O)c3cc4cccc(OC)c4oc3=O)c2)cc1C [compound 48, 8-Methoxy-2-oxo-2H-chromene-3-carboxylic acid (4′-Methoxy-3′-methyl-biphenyl-3-yl)-amide]
> 100	> 100	> 100	COc1ccc(-c2cccc(NC(=O)c3cc4cccc(OC(F)(F)F)c4oc3=O)c2)cc1C [compound 49, 8-Trifluoromethoxy-2-oxo-2H-chromene-3-carboxylic acid (4′-Methoxy-3′-methyl-biphenyl-3-yl)-amide]
> 100	> 100	> 100	COc1ccc(-c2cccc(NC(=O)c3cc4cccc(O)c4oc3=O)c2)c(OC)c1 [compound 50, 8-Hydroxy-2-oxo-2H-chromene-3-carboxylic acid (2′,4′-dimethoxy-biphenyl-3-yl)-amide]
> 100	> 100	> 100	COc1ccc(-c2cccc(NC(=O)c3cc4cccc(OC)c4oc3=O)c2)c(OC)c1 [compound 51, 8-Methoxy-2-oxo-2H-chromene-3-carboxylic acid (2′,4′-dimethoxy-biphenyl-3-yl)-amide]
> 100	> 100	> 100	COc1ccc(-c2cccc(NC(=O)c3cc4cccc(OC(F)(F)F)c4oc3=O)c2)c(OC)c1 [compound 52, 8-Trifluoromethoxy-2-oxo-2H-chromene-3-carboxylic acid (2′,4′-dimethoxy-biphenyl-3-yl)-amide]
0.5 to 10	> 100	> 100	COc1ccc(-c2cccc(NC(=O)c3cc4cccc(O)c4oc3=O)c2)cc1OC [compound 53, 8-Hydroxy-2-oxo-2H-chromene-3-carboxylic acid (3′,4′-Dimethoxy-biphenyl-3-yl)-amide]
> 100	> 100	> 100	COc1ccc(-c2cccc(NC(=O)c3cc4cccc(OC)c4oc3=O)c2)cc1OC [compound 54, 8-Methoxy-2-oxo-2H-chromene-3-carboxylic acid (3′,4′-Dimethoxy-biphenyl-3-yl)-amide]
> 100	> 100	> 100	COc1ccc(-c2cccc(NC(=O)c3cc4cccc(OC(F)(F)F)c4oc3=O)c2)cc1OC [compound 55, 8-Trifluoromethoxy-2-oxo-2H-chromene-3-carboxylic acid (3′,4′-Dimethoxy-biphenyl-3-yl)-amide]
> 100	> 100	> 100	COc1ccc(OC)c(-c2cccc(NC(=O)c3cc4cccc(O)c4oc3=O)c2)c1 [compound 56, 8-Hydroxy-2-oxo-2H-chromene-3-carboxylic acid (2′,5′-dimethoxy-biphenyl-3-yl)-amide]
> 100	> 100	> 100	COc1ccc(OC)c(-c2cccc(NC(=O)c3cc4cccc(OC)c4oc3=O)c2)c1 [compound 57, 8-Methoxy-2-oxo-2H-chromene-3-carboxylic acid (2′,5′-dimethoxy-biphenyl-3-yl)-amide]
> 100	> 100	> 100	COc1ccc(OC)c(-c2cccc(NC(=O)c3cc4cccc(OC(F)(F)F)c4oc3=O)c2)c1 [compound 58, 8-Trifluoromethoxy-2-oxo-2H-chromene-3-carboxylic acid (2′,5′-dimethoxy-biphenyl-3-yl)-amide]
> 100	> 100	> 100	O=C(Nc1cccc(-c2ccc(Oc3ccccc3)cc2)c1)c1cc2cccc(O)c2oc1=O [compound 59, 8-Hydroxy-2-oxo-2H-chromene-3-carboxylic acid (4′-phenoxy-biphenyl-3-yl)-amide]
	> 100	> 100	COc1cccc2c1OCC(C(=O)Nc1cccc(-c3cn4ccccc4n3)c1)=C2 [compound 182, 8-Methoxy-2H-chromene-3-carboxylic acid (3-imidazo[1,2-a]pyridin-2-yl-phenyl)-amide]
